From ChEMBL document CHEMBL1152890, “Synthesis and evaluation of a novel series of heterocyclic oleanolic acid derivatives with anti-osteoclast formation activity” (Eur J Med Chem, 2009)

Tests used:
[1] = Antiosteoclast activity in ICR mouse osteoblast like cells co-cultured with bone marrow cells assessed as effect on 1-alpha,25(OH)2D3-induced TRAP-positive osteoclast like multinucleated cell formation at 200 uM after 6 days medium replaced every 2 days relative to control; type: functional
[2] = Antiosteoclast activity in ICR mouse osteoblast like cells co-cultured with bone marrow cells assessed as effect on 1-alpha,25(OH)2D3-induced TRAP-positive osteoclast like multinucleated cell formation at 2 uM after 6 days medium replaced every 2 days relative to control; type: functional
[3] = Antiosteoclast activity in ICR mouse osteoblast like cells co-cultured with bone marrow cells assessed as recovery of 1-alpha,25(OH)2D3-induced TRAP-positive osteoclast like multinucleated cell formation at 2 uM after 6 days drug removal after 2 days relative to control; type: functional
[4] = Cytotoxicity against ICR mouse osteoblast like cells assessed as cell viability at 2 uM after 4 days drug removal after 2 days by MTT assay relative to control; type: cell-based; conditions: read-out: Activity
[5] = Antiosteoclast activity in ICR mouse osteoblast like cells co-cultured with bone marrow cells assessed as effect on 1-alpha,25(OH)2D3-induced TRAP-positive osteoclast like multinucleated cell formation at 20 uM after 6 days medium replaced every 2 days relative to control; type: functional
[6] = Antiosteoclast activity in ICR mouse osteoblast like cells co-cultured with bone marrow cells assessed as recovery of 1-alpha,25(OH)2D3-induced TRAP-positive osteoclast like multinucleated cell formation at 20 uM after 6 days drug removal after 2 days relative to control; type: functional

Structure (SMILES) | Activity [1] [%] | Activity [2] [%] | Activity [3] [%] | viability at 96 h, 2 µM [4] [%] | Activity [5] [%] | Activity [6] [%]
CC[C@H](C)[C@H](NC(=O)[C@]12CCC(C)(C)C[C@H]1C1=CC[C@@H]3[C@@]4(C)Cc5nccnc5C(C)(C)[C@@H]4CC[C@@]3(C)[C@]1(C)CC2)C(=O)O | 52.6 | 16.2 | 81.3 | 109 | 73.7 | 
CC1(C)CC[C@]2(C(=O)O)CC[C@]3(C)C(=CC[C@@H]4[C@@]5(C)Cc6c([nH]c7ccc(Cl)cc67)C(C)(C)[C@@H]5CC[C@]43C)[C@@H]2C1 | 99.5 | 13 | 73.3 | 132 | 0 | 0
COC(=O)CNC(=O)[C@]12CCC(C)(C)C[C@H]1C1=CC[C@@H]3[C@@]4(C)CCC(=O)C(C)(C)[C@@H]4CC[C@@]3(C)[C@]1(C)CC2 | 31.7 | 27.2 | 73.9 | 141 | 0 | 41.3
C[C@H](NC(=O)[C@]12CCC(C)(C)C[C@H]1C1=CC[C@@H]3[C@@]4(C)Cc5c([nH]c6ccc(Cl)cc56)C(C)(C)[C@@H]4CC[C@@]3(C)[C@]1(C)CC2)C(=O)O | 98.3 | 1.4 | 93.4 |  | 0 | 0
COC(=O)[C@@H](NC(=O)[C@]12CCC(C)(C)C[C@H]1C1=CC[C@@H]3[C@@]4(C)Cc5nccnc5C(C)(C)[C@@H]4CC[C@@]3(C)[C@]1(C)CC2)C(C)C | 78.4 | 59.8 | 77.6 | 142 | 27.8 | 73.1
CC(C)[C@H](NC(=O)[C@]12CCC(C)(C)C[C@H]1C1=CC[C@@H]3[C@@]4(C)Cc5nc6ccccc6nc5C(C)(C)[C@@H]4CC[C@@]3(C)[C@]1(C)CC2)C(=O)O | 57.5 | 47.3 | 70.6 | 128 | 42.8 | 
CC1(C)CC[C@]2(C(=O)O)CC[C@]3(C)C(=CC[C@@H]4[C@@]5(C)Cc6cc7ccccc7nc6C(C)(C)[C@@H]5CC[C@]43C)[C@@H]2C1 | 97.2 | 39.2 | 73 | 134 | 33.2 | 18.9
